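Briefly, cells in 96-well plates were exposed to five compound concentrations for 48 h, and endpoints were estimated by linear interpolation. The concentration for 50% growth inhibition is given as GI50. The concentration for full growth arrest is given as TGI.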
Assays:
Assay in all cases: DTP human tumour cell line panel, 48 h
[1] = tested on: HT29 colon
[2] = tested on: CAKI-1 renal
[3] = tested on: SK-MEL-28 melanoma
[4] = tested on: MOLT-4 leukemia
[5] = tested on: UACC-62 melanoma
[6] = tested on: NCI-H460 lung
[7] = tested on: K-562 leukemia
[8] = tested on: HL-60(TB) leukemia
[9] = tested on: IGROV1 ovarian
[10] = tested on: NCI-H226 lung
[11] = tested on: LOX IMVI melanoma
[12] = tested on: MCF7 breast
[13] = tested on: HS 578T breast
[14] = tested on: EKVX NSCLC
[15] = tested on: SNB-75 CNS
[16] = tested on: RPMI-8226 leukemia
[17] = tested on: SF-539 CNS
[18] = tested on: SK-MEL-2 melanoma
[19] = tested on: MALME-3M melanoma
[20] = tested on: ACHN renal
[21] = tested on: SW-620 colon
[22] = tested on: T-47D breast
[23] = tested on: RXF 393 renal
[24] = tested on: NCI/ADR-RES ovarian
[25] = tested on: SNB-19 CNS
[26] = tested on: CCRF-CEM leukemia
[27] = tested on: MDA-MB-231 breast
[28] = tested on: NCI-H23 lung
[29] = tested on: SF-268 CNS
[30] = tested on: OVCAR-5 ovarian
[31] = tested on: HOP-92 NSCLC
[32] = tested on: HCT-15 colon
[33] = tested on: A498 renal
[34] = tested on: OVCAR-4 ovarian
[35] = tested on: SK-OV-3 ovarian
[36] = tested on: SF-295 CNS
[37] = tested on: OVCAR-3 ovarian
[38] = tested on: U251 CNS
[39] = tested on: MDA-MB-435
[40] = tested on: SK-MEL-5 melanoma
[41] = tested on: NCI-H522 lung
[42] = tested on: SR leukemia
[43] = tested on: TK-10 renal
[44] = tested on: PC-3 prostate
[45] = tested on: SN12C renal
[46] = tested on: OVCAR-8 ovarian
[47] = tested on: UO-31 renal
[48] = tested on: COLO 205 colon
[49] = tested on: HCC-2998 colon
[50] = tested on: UACC-257 melanoma
[51] = tested on: KM12 colon
[52] = tested on: A549 NSCLC
[53] = tested on: BT-549 breast

SMILES: COc1cc(/C=C2\C(=O)Nc3ccc(O)cc32)cc(OC)c1OC
- GI50 [1]: 10.3 µM
- TGI [1]: 25.3 µM
- GI50 [2]: 23.1 µM
- TGI [2]: 83.1 µM
- GI50 [3]: 14.1 µM
- TGI [3]: 30.2 µM
- GI50 [4]: 1.24 µM
- TGI [4]: 28.5 µM
- GI50 [5]: 11.7 µM
- TGI [5]: 26.6 µM
- GI50 [6]: 8.69 µM
- TGI [6]: 35.9 µM
- GI50 [7]: 3.83 µM
- TGI [7]: > 100 µM
- GI50 [8]: 6.11 µM
- TGI [8]: 40.7 µM
- GI50 [9]: 12.1 µM
- TGI [9]: 35.7 µM
- GI50 [10]: 21.1 µM
- TGI [10]: 54.4 µM
- GI50 [11]: 4.53 µM
- TGI [11]: 16.6 µM
- GI50 [12]: 8.59 µM
- TGI [12]: > 100 µM
- GI50 [13]: 13.5 µM
- TGI [13]: > 100 µM
- GI50 [14]: 18.6 µM
- TGI [14]: 59 µM
- GI50 [15]: 8.54 µM
- TGI [15]: 33.7 µM
- GI50 [16]: 3.53 µM
- TGI [16]: 21.3 µM
- GI50 [17]: 5.86 µM
- TGI [17]: 81.5 µM
- GI50 [18]: 13.6 µM
- TGI [18]: 34.7 µM
- GI50 [19]: 17.9 µM
- TGI [19]: 44.4 µM
- GI50 [20]: 15.9 µM
- TGI [20]: 78.6 µM
- GI50 [21]: 10.5 µM
- TGI [21]: > 100 µM
- GI50 [22]: 7.55 µM
- TGI [22]: > 100 µM
- GI50 [23]: 2.19 µM
- TGI [23]: 5.94 µM
- GI50 [24]: 17.8 µM
- TGI [24]: 59 µM
- GI50 [25]: 11.9 µM
- TGI [25]: 40.6 µM
- GI50 [26]: 4.34 µM
- TGI [26]: 34.4 µM
- GI50 [27]: 8.06 µM
- TGI [27]: 37 µM
- GI50 [28]: 6.76 µM
- TGI [28]: 24.8 µM
- GI50 [29]: 6.49 µM
- TGI [29]: 26.8 µM
- GI50 [30]: 17.5 µM
- TGI [30]: 33.5 µM
- GI50 [31]: 7.92 µM
- TGI [31]: 30.2 µM
- GI50 [32]: 13.1 µM
- TGI [32]: 41 µM
- GI50 [33]: 18.3 µM
- TGI [33]: 40.6 µM
- GI50 [34]: 11.1 µM
- TGI [34]: 55.7 µM
- GI50 [35]: 27.8 µM
- TGI [35]: 98.1 µM
- GI50 [36]: 26.4 µM
- TGI [36]: > 100 µM
- GI50 [37]: 6.44 µM
- TGI [37]: 28.3 µM
- GI50 [38]: 4.08 µM
- TGI [38]: 16.8 µM
- GI50 [39]: 3.96 µM
- TGI [39]: 17.1 µM
- GI50 [40]: 6.31 µM
- TGI [40]: 25.1 µM
- GI50 [41]: 4.24 µM
- TGI [41]: 17.1 µM
- GI50 [42]: 1.75 µM
- TGI [42]: 9.5 µM
- GI50 [43]: 40 µM
- TGI [43]: > 100 µM
- GI50 [44]: 2.4 µM
- TGI [44]: 19.1 µM
- GI50 [45]: 15.5 µM
- TGI [45]: 72.2 µM
- GI50 [46]: 18.3 µM
- TGI [46]: 65.6 µM
- GI50 [47]: 12.1 µM
- TGI [47]: 33.3 µM
- GI50 [48]: 20 µM
- TGI [48]: 59.6 µM
- GI50 [49]: 7.46 µM
- TGI [49]: 20.9 µM
- GI50 [50]: 8.48 µM
- TGI [50]: 22.1 µM
- GI50 [51]: 17 µM
- TGI [51]: > 100 µM
- GI50 [52]: 21 µM
- TGI [52]: 88 µM
- GI50 [53]: 11 µM
- TGI [53]: 29.4 µM
